Patent US20110178105A1, “CLINICAL BENEFITS OF EICOSAPENTAENOIC ACID IN HUMANS” (E.I. DU PONT DE NEMOURS AND COMPANY, priority 2010, published 2011)
Where “and” joins values, the source holds several entries; their conditions need not be identical. Identical values can stand only once. Entries after “also recorded” stand apart in the source; their conditions may differ.

Experiments:
[1] = Clinical study: post-prandial lipids 4 hours after fat-rich test meal; type: in vivo, human; details: 6 weeks
Description: At visit 2, subjects were again asked to fast for 12 hours, and information about subject characteristics including all vital signs, recent illness or hospitalization, medication and supplement use, and diet information was again obtained. Subjects then had blood drawn for a metabolic profile and complete blood counts. […] Subjects (30 in each group) were then randomized equally for 6 weeks to one of four treatment arms: 1) olive oil placebo; 2) 600 mg of EPA/day; 3) 1800 mg of EPA/day; and, 4) 600 mg of DHA/day. At one week and three weeks after beginning the supplements, all study subjects were contacted by telephone and asked about any adverse effects and about their compliance, and the information on their calendars with regard to capsule use and fish intake. They were also asked about whether they had experienced any fishy aftertaste or odor, and if so, how frequent were these episodes, and how unpleasant were they? The entire process as listed above was repeated after study subjects were on the study capsules for 6 weeks at the time of the final visit. Compliance and adverse events were assessed by telephone at weeks 1 and 3 by telephone and at week 6 by questionnaire and capsule count. Over 42 days, subjects were expected to have consumed a total of 252 capsules. Compliance was calculated as a percentage of consumed capsule count/expected capsule count based on the number of days the subject was in the study. All subjects were asked to stay on their capsules until they come in for their final visit. Compliance in all participants who completed the study was based on capsule count was in excess of 85%, mean 96%.
(§1) On the samples obtained 4 hours after the fat-rich meal, total cholesterol, triglycerides, direct HDL cholesterol, and direct LDL cholesterol were measured. Direct LDL cholesterol and small dense LDL cholesterol levels were measured using kits obtained from Denka-Seiken Corporation, (Tokyo, Japan), as previously described (Okada, M. et al., supra; Hirano, T. et al., supra; Ai, M. et al., supra). Remnant lipoprotein cholesterol was measured using kits obtained from Polymedco (Cortland Manor, N.Y.) and manufactured by Otsuka Corporation (Tokyo, Japan) as previously described (McNamara, J. R. et al., Atherosclerosis, supra). All lipid assays are standardized through the Lipid Research Clinics standardization program of the Centers for Disease Control (Atlanta, Ga.). All assays had between and within run coefficients of variation of <5%. Serum fatty acid profiles were analyzed by Nutrasource Diagnostics (Guelph, Ontario, Canada).

[2] = cited from earlier work; for better absorbed than EE forms: TG forms
[3] = Clinical study: inflammation markers, adhesion molecules, adiponectin (hsCRP, IL-6, sICAM, VCAM); type: in vivo, human; details: Fast, 6 weeks
Description: The following laboratory measurements were carried out on an automated analyzer (Roche Diagnostics, Indianapolis, Ind.) on samples obtained in the fasting state at the randomization visit, and the final visits using frozen aliquots of serum stored at −80 degrees Celsius: 1) total cholesterol; 2) triglycerides; 3) direct high density lipoprotein [“HDL”] cholesterol; 4) direct low density lipoprotein [“LDL”] cholesterol; 5) direct small dense LDL cholesterol; 6) apolipoprotein [“apo”] B; 7) apoA-I; 8) lipoprotein (a); 9) fibrinogen; 10) high sensitivity C reactive protein [“hs-CRP”]; 11) lipoprotein associated phospholipase A2 [“Lp-PLA2”]; and, 12) insulin as previously described. See, McNamara, J. R. and Schaefer, E. J., Clin. Chim. Acta, 166:1-8 (1987); Okada, M. et al., J. Lab. Clin. Med., 132:195-201 (1998); Hirano, T. et al., J. Lipid Res., 44:2193-2201 (2003); Ai, M. et al., Am. J. Cardiol., 101:315-318 (2008); Ingelsson, E. et al., JAMA, 298:776-785 (2007); Jenner, J. L. et al., Circulation, 87:1135-1141 (1993); Schaefer, E. J. et al., Am. J. Cardiol., 95:1025-1032 (2005); McNamara, J. R. et al., Atherosclerosis, 154:229-236 (2001).
Plasma apoB-48 was measured with an enzyme linked immunosorbent assay obtained from the Shibayagi Company (Gunma, Japan) (Kinoshita, M. et al., Clin. Chim. Acta, 351:115-120 (2005); Otokozawa, S. et al., Atherosclerosis, 205:197-201 (2009); Otokozawa, S. et al., Metabolism, 58(11): 1536-1542 (2009)). ICAM1 and VCAM1, interleukin-6 or IL-6, and adiponectin were all measured using commercially available enzyme linked immunoassays [“ELISA”] obtained from the R & D Corporation (Minneapolis, Minn.). All these assays have within and between run coefficients of variation of less than 10%.

[4] = Clinical study: serum fatty acid profiles (EPA, ARA/EPA, Total Omega-3 Score); type: in vivo, human; details: 6 weeks; for Total Omega-3 Score: FIG. 4; for serum level of EPA / serum ratio of ARA/EPA (Inflammation Index): EPA 600 and 1800 mg/day, DHA 600 mg/day; for serum level of EPA: FIG. 1; for serum ratio of ARA/EPA (Inflammation Index): FIG. 3
Description: as §1

CCC=CCC=CCC=CCC=CCC=CC/C=C\CCC(=O)O [DHA, cis-4,7, 10, 13, 16, 19-docosahexaenoic acid, reference compound]
HDL C, 6-Week Change (%) ([1]; DHA 600 mg (n = 28)): +1.2 ± 10.9%
HDL C, Final ([1]; DHA 600 mg (n = 28)): 57.5 ± 22.7 mg/dL
LDL C, Final ([1]; DHA 600 mg (n = 28)): 121.9 ± 32.9 mg/dL
Total Cholesterol, 6-Week Change (%) ([1]; DHA 600 mg (n = 28)): +6.2 ± 10.8%
Total Cholesterol, Final ([1]; DHA 600 mg (n = 28)): 211.1 ± 38.6 mg/dL
Triglyceride, 6-Week Change (%) ([1]; DHA 600 mg (n = 28)): −9.5% and −9.5 ± 24.4%
Triglyceride, Final ([1]; DHA 600 mg (n = 28)): 169.8 ± 89.2 mg/dL
better absorbed than EE forms [2]: 36%
Adiponectin, 6-Week Change (%) ([3]; DHA 600 mg (n = 28)): −6.7 ± 19.8%
Adiponectin, Final ([3]; DHA 600 mg (n = 28)): 11380.0 ± 14772.6 ng/mL
IL-6, 6-Week Change (%) ([3]; DHA 600 mg (n = 28)): +5.7 ± 50.3%
IL-6, Final ([3]; DHA 600 mg (n = 28)): 1.6 ± 0.9 pg/mL
VCAM, 6-Week Change (%) ([3]; DHA 600 mg (n = 28)): +0.2 ± 11.0%
VCAM, Final ([3]; DHA 600 mg (n = 28)): 673.0 ± 197.4 ng/mL
hsCRP, 6-Week Change (%) ([3]; DHA 600 mg (n = 28)): +27.1 ± 82.3%
hsCRP, Final ([3]; DHA 600 mg (n = 28)): 3.4 ± 4.5 mg/L
sICAM, 6-Week Change (%) ([3]; DHA 600 mg (n = 28)): +0.7 ± 18.0%
sICAM, Final ([3]; DHA 600 mg (n = 28)): 240.2 ± 114.1 ng/mL
retroconversion of DHA to EPA [4]: no indication
Total Omega-3 Score [4]: increased
serum level of EPA [4]: not
serum ratio of ARA/EPA (Inflammation Index) ([4]; listed as DHA-rich oil): no such effect

CCC=CCC=CCC=CCC=CC/C=C\CCCC(=O)O [EPA, cis-5,8, 11, 14, 17-eicosapentaenoic acid]
HDL C, 6-Week Change (%) ([1]; EPA 600 mg (n = 27)): +4.8 ± 20.7%
HDL C, Final ([1]; EPA 600 mg (n = 27)): 53.1 ± 16.4 mg/dL
LDL C, 6-Week Change (%) ([1]; EPA 600 mg (n = 27)): −1.4 ± 12.9%
LDL C, Final ([1]; EPA 600 mg (n = 27)): 108.2 ± 32.2 mg/dL
Total Cholesterol, 6-Week Change (%) ([1]; EPA 600 mg (n = 27)): −0.3 ± 8.6%
Total Cholesterol, Final ([1]; EPA 600 mg (n = 27)): 193.3 ± 44.7 mg/dL
Triglyceride, 6-Week Change (%) ([1]; EPA 600 mg (n = 27)): −3.1 ± 36.9%
Triglyceride, Final ([1]; EPA 600 mg (n = 27)): 184.9 ± 98.5 mg/dL
HDL C, 6-Week Change (%) ([1]; EPA 1800 mg (n = 29)): +3.4 ± 11.5%
HDL C, Final ([1]; EPA 1800 mg (n = 29)): 55.3 ± 15.3 mg/dL
LDL C, 6-Week Change (%) ([1]; EPA 1800 mg (n = 29)): −2.7 ± 13.6%
LDL C, Final ([1]; EPA 1800 mg (n = 29)): 111.5 ± 25.2 mg/dL
Total Cholesterol, 6-Week Change (%) ([1]; EPA 1800 mg (n = 29)): −1.4 ± 9.9%
Total Cholesterol, Final ([1]; EPA 1800 mg (n = 29)): 197.3 ± 33.8 mg/dL
Triglyceride, 6-Week Change (%) ([1]; EPA 1800 mg (n = 29)): −3.8 ± 40.2%
Triglyceride, Final ([1]; EPA 1800 mg (n = 29)): 193.5 ± 184.2 mg/dL
better absorbed than EE forms [2]: 48%
EPA incorporation into plasma lipids ([2]; administered as an EE): considerably smaller
Adiponectin, 6-Week Change (%) ([3]; EPA 600 mg (n = 27)): 11.3 ± 31.4%
Adiponectin, Final ([3]; EPA 600 mg (n = 27)): 9501.4 ± 5894.3 ng/mL
IL-6, 6-Week Change (%) ([3]; EPA 600 mg (n = 27)): +35.3 ± 126.1%
IL-6, Final ([3]; EPA 600 mg (n = 27)): 2.0 ± 1.8 pg/mL
VCAM, 6-Week Change (%) ([3]; EPA 600 mg (n = 27)): +2.2 ± 12.6%
VCAM, Final ([3]; EPA 600 mg (n = 27)): 722.8 ± 178.0 ng/mL
hsCRP, 6-Week Change (%) ([3]; EPA 600 mg (n = 27)): +115.6 ± 508.4%
hsCRP, Final ([3]; EPA 600 mg (n = 27)): 3.3 ± 4.9 mg/L
sICAM, 6-Week Change (%) ([3]; EPA 600 mg (n = 27)): +3.2 ± 19.0%
sICAM, Final ([3]; EPA 600 mg (n = 27)): 232.4 ± 62.7 ng/mL
Adiponectin, 6-Week Change (%) ([3]; EPA 1800 mg (n = 29)): 16.4 ± 82.6%
Adiponectin, Final ([3]; EPA 1800 mg (n = 29)): 17578.6 ± 45606.9 ng/mL
IL-6, 6-Week Change (%) ([3]; EPA 1800 mg (n = 29)): +3.1 ± 50.1%
IL-6, Final ([3]; EPA 1800 mg (n = 29)): 1.3 ± 0.7 pg/mL
VCAM, 6-Week Change (%) ([3]; EPA 1800 mg (n = 29)): +1.0 ± 13.5%
VCAM, Final ([3]; EPA 1800 mg (n = 29)): 607.5 ± 125.7 ng/mL
hsCRP, 6-Week Change (%) ([3]; EPA 1800 mg (n = 29)): +26.0 ± 113.0%
hsCRP, Final ([3]; EPA 1800 mg (n = 29)): 2.7 ± 4.7 mg/L
sICAM, 6-Week Change (%) ([3]; EPA 1800 mg (n = 29)): −2.6 ± 17.1%
sICAM, Final ([3]; EPA 1800 mg (n = 29)): 206.9 ± 50.5 ng/mL
metabolic conversion of EPA to DHA [4]: no indication
Total Omega-3 Score [4]: increased
serum level of EPA [4]: significantly raised
serum ratio of ARA/EPA (Inflammation Index) ([4]; listed as EPA substantially free of DHA): significantly decreased
serum ratio of ARA/EPA (Inflammation Index) ([4]; listed as EPA-rich oil): dose-related decrease; also recorded: significantly decreased
